Where a name gives a salt, the structure may show the parent alone.
Experiments:
PC12 cells = experiment: Veratridine-evoked [^3H]noradrenaline release from PC12 cells; type: cell-based, rat; conditions: for effect on veratridine-evoked [^3H]noradrenaline release (concentration-response): in the absence of rauwolscine / interacting drugs; for activity at 100 µM: PC-12, read-out: Veratridine (1 mM)-induced [^3H]noradrenaline release (% of controls without drug); for effect on veratridine-induced [^3H]noradrenaline release (concentration-response): in the presence of 3 μM rauwolscine; for effect on veratridine-evoked [^3H]noradrenaline release, given alone: CB1 antagonist given alone; for effect on evoked tritium overflow: 3 μM rauwolscine
Procedure: PC12 cells were cultured in suspension culture as described by Harder and Bönisch (1984). […] For the experiments on intact cells, PC12 cells were cultured in a humidified CO2-incubator (at 37° C. and in the presence of 9% CO2) on dishes (60 mm, Nunc) coated with polyornithine 0.1 g/l (in 0.15 M boric acid, and 67 mM NaOH, adjusted with HCl to pH 8.4). Each culture dish contained about 10^7 cells corresponding to about 1 mg cell protein.
To load the cells with labelled noradrenaline, 10 nM [^3H]noradrenaline was added to the culture medium (3 ml/dish) and the cells were incubated for 3 h in a CO2-incubator (37° C.). To minimize oxidation of the catecholamine, L(+)-ascorbic acid (1 mM) was present in all solutions. The cells were then washed twice with culture medium and incubated for 60 min with [^3H]noradrenaline-free culture medium (with a change of the medium after 30 min). Subsequently the cell dishes were transferred to a water bath of 37° C. (onset of the experiment) and the cells were then incubated until the end of the experiment with prewarmed (37° C.) [^3H]noradrenaline-free HEPES-buffered salt solution (composition in mM unless stated otherwise: NaCl 125, KCl 15, KH2PO4 1.2, CaCl2 2.6, MgSO4 1.2, HEPES-NaOH (pH 7.4) 25, D(+)-glucose 5.6, L(+)-ascorbic acid 1.0) with a change of the medium every 5 min (total incubation time in the HEPES buffer: 85 min). To minimize loss of cells during washing und to inhibit the neuronal noradrenaline transport system the solution contained 1 g/l bovine serum albumin and 1 μM desipramine, respectively (Friedrich and Bönisch, 1986). The agonist and/or antagonist under study was added to the HEPES buffer at the onset of the exposure to this buffer. Sixty min after onset of incubation with the buffer 1 mM veratridine was added for 5 min. In a few experiments, the HEPES-buffered salt solution contained 4.8 instead of 15 mM KCl and stimulation was carried out either by 1 mM veratridine or by increasing the KCl concentration to 15 mM (time schedule identical to the standard procedure). In one series of experiments, culture medium was changed daily (instead of changing it every 3 days as standard condition) and 100 μM clonidine was added to the medium for 72 h. The cells were then washed twice with clonidine-free culture medium (with a change of the medium after 30 min). Subsequently the cell dishes were transferred to a water bath of 37° C. (onset of the experiment) and the cells were then incubated until the end of the experiment with prewarmed (37° C.) [^3H]noradrenaline-free HEPES-buffered salt solution and veratridine was administered 2 h after the end of exposure to clonidine. Basal efflux of tritium was determined in the 5-min period before and in that 20 min after onset of stimulation. Veratridine-evoked tritium overflow was determined in the four 5-min periods after the onset of veratridine application. At the end of the experiment, the cells were solubilized by 0.1% v/v TritonX-100 (in 5 mM Tris-HCl, pH 7.4). The radioactivity of the solubilized cells und of the wash-out samples was determined by liquid scintillation counting.

h(edg2) receptor = molecular target: T1, h(edg2) receptor (Homo sapiens, UniProt Q92633); experiment: Agonist-induced [^35S]GTPγS binding to membranes from RH7777 cells stably transfected with h(edg2) receptors; type: biochemical; conditions: for agonist character at the edg2-receptor: increase to the same extent as for the endogenous ligand LPA; for effect on [^35S]GTPγS-binding: nanomolar concentrations, 10 μM rauwolscine, 0.1 μM GDP
T1 construct: expressed in transfected cells; host or cells: RH7777 cells (rat hepatoma cells), membranes
T1 sequence (Q92633 whole entry): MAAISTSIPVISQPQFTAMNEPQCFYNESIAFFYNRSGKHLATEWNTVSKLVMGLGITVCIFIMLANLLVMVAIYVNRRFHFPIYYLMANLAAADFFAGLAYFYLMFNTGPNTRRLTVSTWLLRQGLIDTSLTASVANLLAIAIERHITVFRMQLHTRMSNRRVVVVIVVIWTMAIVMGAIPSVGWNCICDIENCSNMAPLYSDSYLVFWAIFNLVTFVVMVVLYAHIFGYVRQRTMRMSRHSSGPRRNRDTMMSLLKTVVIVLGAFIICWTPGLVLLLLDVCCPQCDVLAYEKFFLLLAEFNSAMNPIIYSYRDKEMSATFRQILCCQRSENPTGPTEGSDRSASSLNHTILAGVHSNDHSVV
Procedure: RH7777 cells (rat hepatoma cells) stably transfected with cDNA encoding the h(edg2) receptor and PC12 cells were homogenized in ice-cold 20 mM HEPES buffer containing […] EDTA (pH 7.4 at RT) with an ultraturrax homgenizer and centrifuged at 48,000 g, 4° C. for 15 min. The pellet was resuspended in ice-cold 20 mM HEPES buffer containing 0.1 mM EDTA (pH 7.4 at RT) and recentrifuged at 48,000 g, 4° C. for 15 min. The final pellet was resuspended in 20 mM HEPES buffer (pH 7.4 at RT).
50 μg Membranes were incubated in 0.5 ml of GTP-binding buffer containing GDP 0.1 μM, rauwolscine 10 μM (in the experiments with membranes from RH7777 cells), [^35S]GTPγs 0.05 nM and indicated test compound (LPA, clonidine or moxonidine diluted in assay buffer containing 1% fatty acid free BSA) for 45 min at 30° C. The incubation was terminated by filtering over GF/B filters with a cell harvester, and the filters were washed once with 5 ml of ice-cold assay buffer. Radioactivity was counted by liquid scintillation spectrometry at an efficiency of >95%.

α2-adrenoceptors = experiment: [^3H]rauwolscine radioligand binding to membranes from undifferentiated PC12 cells; set-up: species or system rat; conditions: 16.8 nM radioligand; for [^3H]Rauwolscine binding: n=4
Procedure: Results are expressed as mean values±SEM. All experiments were carried out in triplicate.

[1] = drug 100 μM, 3 μM rauwolscine present

Molecule: CCCCCCCC/C=C\CCCCCCCC(=O)OC[C@@H](O)COP(=O)(O)O [1-oleoyl-LPA, 1-oleoyl-lysophosphatidic acid]
- effect on evoked [^3H]noradrenaline release (PC12 cells; 10 μM 1-oleoyl-LPA, cells pretreated with 100 μM clonidine for 72 h): did not inhibit but tended to increase
- effect on veratridine-evoked [^3H]noradrenaline release (concentration-response) (PC12 cells): concentration-dependently inhibited

Molecule: CCCCCCCCCCCCCCCC(=O)OCC(O)COP(=O)(O)O (centres unmarked) [1-palmitoyl-LPA]
- effect on evoked [^3H]noradrenaline release (PC12 cells; 10 μM 1-palmitoyl-LPA): did not alter
- effect on evoked [^3H]noradrenaline release (PC12 cells; up to 1 μM 1-palmitoyl-LPA): concentration-dependently increased

Molecule: N=C(N)NN1Cc2c(Cl)ccc(Cl)c2C1 [Aganodine, aganodine]
- effect on veratridine-induced [^3H]noradrenaline release at 100 μM (in words) (PC12 cells; [1]): inhibited
- Veratridine (1 mM)-induced [^3H]noradrenaline release (% of controls without drug) (PC12 cells; drug 100 μM, 15 mM KCl, 1 μM desipramine and 3 μM rauwolscine throughout, means ± SEM of 6-11 experiments): 32.3 ± 5.7%

Molecule: N=C(N)NCCCCN.O=S(=O)(O)O [Agmatine, agmatine sulfate]
- activity at 100 µM (PC12 cells; Rattus norvegicus): 76.4 ± 9.5%
- effect on veratridine-induced [^3H]noradrenaline release at 100 μM (in words) (PC12 cells; [1]): inhibited
- effect on veratridine-induced [^3H]noradrenaline release (concentration-response) (PC12 cells): concentration-dependently inhibited

Molecule: CCCCC/C=C\C/C=C\C/C=C\C/C=C\CCCC(=O)NCCO [Anandamide, anandamide]
- effect on veratridine-evoked [^3H]noradrenaline release (PC12 cells; 1 μM anandamide): did not affect
- effect on veratridine-evoked [^3H]noradrenaline release (PC12 cells; 100 μM anandamide): enhanced

Molecule: Cl.Clc1cccc2c1CN(NC1=NCCN1)C2 [BDF 6143, 4-chloro-2-(2-imidazolin-2-ylamino)-isoindoline hydrochloride]
- activity at 100 µM (PC12 cells; Rattus norvegicus): 74.7 ± 11.1%
- effect on veratridine-induced [^3H]noradrenaline release at 100 μM (in words) (PC12 cells; [1]): inhibited
- effect on veratridine-induced [^3H]noradrenaline release (concentration-response) (PC12 cells): concentration-dependently inhibited

Molecule: c1ccc(C2CC2)c(OCC2=NCCN2)c1 [Cirazoline, cirazoline hydrochloride]
- activity at 100 µM (PC12 cells; Rattus norvegicus): 17.4 ± 7.5%
- effect on veratridine-induced [^3H]noradrenaline release at 100 μM (in words) (PC12 cells; [1]): inhibited

Molecule: Clc1cccc(Cl)c1N=C1NCCN1 [Clonidine, clonidine hydrochloride]
- effect on [^3H]noradrenaline release (PC12 cells; 10 μM clonidine in the presence of 10 μM SR141716A): acted facilitatory
- evoked [^3H]noradrenaline release (% of veratridine-evoked release in the respective control experiments) (PC12 cells; 100 μM clonidine, cells pretreated with 100 μM clonidine for 72 h, n=6): 171±24%
- activity at 100 µM (PC12 cells; Rattus norvegicus): 25.6 ± 12.2%
- effect on veratridine-induced [^3H]noradrenaline release at 100 μM (in words) (PC12 cells; [1]): inhibited
- effect on veratridine-evoked [^3H]noradrenaline release (concentration-response) (PC12 cells): concentration-dependently inhibited
- effect on veratridine-induced [^3H]noradrenaline release (concentration-response) (PC12 cells): concentration-dependently inhibited
- agonist character at the edg2-receptor (h(edg2) receptor): full agonists
- effect on [^35S]GTPγS-binding (h(edg2) receptor): provoke an increase

Molecule: Cc1ccccc1NC(=N)Nc1ccccc1C [DTG, 1,3-di(2-tolyl)guanidine]
- activity at 100 µM (PC12 cells; Rattus norvegicus): 63.3 ± 7%
- effect on veratridine-induced [^3H]noradrenaline release at 100 μM (in words) (PC12 cells; [1]): inhibited

Molecule: COc1ccc(-c2sc3cc(OC)ccc3c2C(=O)c2ccc(C#N)cc2)cc1 [LY320135, [6-methoxy-2-(4-methoxyphenyl)benzo[b]thien-3-yl][4-cyanophenyl]methanone]
- interaction with the inhibition produced by 100 μM clonidine (PC12 cells; 10 μM LY320135): counteracted
- evoked [^3H]noradrenaline release (% of evoked release in the respective control experiments) (PC12 cells; 10 μM LY320135 together with 10 μM 1-oleoyl-LPA, n=6): 198.8%±39.9%
- effect on veratridine-evoked [^3H]noradrenaline release, given alone (PC12 cells): did not affect

Molecule: COc1nc(C)nc(Cl)c1N=C1NCCN1 [Moxonidine, moxonidine]
- activity at 100 µM (PC12 cells; Rattus norvegicus): 81.6 ± 5.2%
- effect on veratridine-induced [^3H]noradrenaline release (PC12 cells; up to a concentration of 1000 μM, 3 μM rauwolscine present): failed to modify
- agonist character at the edg2-receptor (h(edg2) receptor): full agonists
- effect on [^35S]GTPγS-binding (h(edg2) receptor): provoke an increase

Molecule: NC[C@H](O)c1ccc(O)c(O)c1 [Noradrenaline, noradrenaline base]
- activity at 100 µM (PC12 cells; Rattus norvegicus): 93 ± 11.5%
- effect on veratridine-induced [^3H]noradrenaline release at 100 μM (in words) (PC12 cells; [1]): failed to modify

Molecule: COC(=O)[C@H]1[C@H]2C[C@H]3c4[nH]c5ccccc5c4CCN3C[C@H]2CC[C@@H]1O [Rauwolscine, Rauwolscine hydrochloride]
- effect on the concentration-response curve of clonidine (PC12 cells; 3 μM rauwolscine versus absence of rauwolscine): did not substantially differ
- effect on the concentration-response curve of clonidine (PC12 cells; 30 μM rauwolscine): shifted to the right
- interaction with the inhibitory effect of 10 μM 1-oleoyl-LPA (PC12 cells; 30 μM rauwolscine): counteracted
- effect on veratridine-induced [^3H]noradrenaline release, given alone (PC12 cells; rauwolscine 3 μM alone, n=6): did not significantly modify

Molecule: CCCCCCCCCCCCC/C=C/[C@@H](O)[C@@H](N)COP(=O)(O)O [S1P, sphingosine-1-phosphate]
- evoked [^3H]noradrenaline release (% of veratridine-evoked release in the respective control experiments) (PC12 cells; 10 μM S1P, n=6): 101.7%±31.3%

Molecule: Cc1c(C(=O)NN2CCCCC2)nn(-c2ccc(Cl)cc2Cl)c1-c1ccc(Cl)cc1 [SR141716A, N-[piperidin-1-yl]-5-[4-chlorophenyl]-1-[2,4-dichlorophenyl]-4-methyl-1H-pyrazole-3-carboxamide]
- interaction with the inhibition produced by 100 μM clonidine (PC12 cells; 1 μM SR141716A): counteracted
- interaction with the inhibitory effect of 10 μM 1-oleoyl-LPA (PC12 cells; 1 μM SR141716A): counteracted
- interaction with the inhibitory effect of 0.3 μM CP55,940 (PC12 cells; 1 μM SR141716A + 3 μM rauwolscine): antagonized
- effect on the concentration-response curve of clonidine (PC12 cells; 10 μM SR141716A): shifted to the right
- effect on veratridine-evoked [^3H]noradrenaline release, given alone (PC12 cells): did not affect

Molecule: CS(=O)(=O)O.Cc1c(C(=O)c2cccc3ccccc23)c2cccc3c2n1[C@H](CN1CCOCC1)CO3 [WIN55,212-2, R(+)-[2,3-dihydro-5-methyl-3-[(morpholinyl)methyl]pyrrolo[1,2,3-de]-1,4-benzoxazin-yl)(1-naphthalenyl)methanone mesylate]
- effect on veratridine-induced [^3H]noradrenaline release (concentration-response) (PC12 cells): concentration-dependently inhibited

Molecule: Cc1c(C(=O)c2cccc3ccccc23)c2cccc3c2n1[C@@H](CN1CCOCC1)CO3 [WIN55,212-3]
- effect on veratridine-induced [^3H]noradrenaline release at 100 μM (in words) (PC12 cells; [1]): did not

Molecule: COC(=O)[C@H]1[C@H]2C[C@H]3c4[nH]c5ccccc5c4CCN3C[C@H]2CC[C@@H]1O [[^3H]Rauwolscine, [O-methyl-3H]rauwolscine]
- [^3H]Rauwolscine binding as % of the radioactivity added to each assay (α2-adrenoceptors; absence of 10 μM rauwolscine): 0.19±0.01%
- [^3H]Rauwolscine binding (α2-adrenoceptors; absence of 10 μM rauwolscine): 134.0±7.1 fmol/mg protein
- [^3H]Rauwolscine binding as % of the radioactivity added to each assay (α2-adrenoceptors; presence of 10 μM rauwolscine): 0.19±0.01%
- [^3H]Rauwolscine binding (α2-adrenoceptors; presence of 10 μM rauwolscine): 132.8±7.0 fmol/mg protein

Molecule: COc1cc2c(c(OC)c1OC)-c1ccc(OC)c(=O)cc1[C@@H](NC(C)=O)CC2 [colchicine]
- inhibition at 50 µM (PC12 cells; Rattus norvegicus, PC-12, read-out: inhibition of veratridine (1 mM)-evoked tritium overflow): 56%

Molecule: [(−)-cis-3-[2-hydroxy-4-(1,1-dimethylheptyl)phenyl]-trans-4-(3-hydroxypropyl)-cyclohexane [CP55,940]
- effect on evoked tritium overflow (PC12 cells; 0.3 μM CP55,940): significantly inhibited
- effect on evoked tritium overflow (PC12 cells; 1 μM CP55,940): no inhibition
- effect on evoked tritium overflow (PC12 cells; 10 μM CP55,940): facilitation

Molecule: lysophospatidic acid [LPA]
- effect on [^35S]GTPγS-binding (h(edg2) receptor): provoke an increase
